Measured values: US9085576B2 (AMGEN INC., priority 2013, dated 2015)

Tests used:
[1] = molecular target: Cathepsin D (Cat D) (Homo sapiens (Human), UniProt P07339); experiment: In vitro enzymatic Cathepsin D (Cat D) FRET assay; type: biochemical; details: read-out: CatD IC50
[2] = molecular target: BACE (Homo sapiens (Human), UniProt P56817); experiment: In vitro BACE cell-based assay (Aβ40 in conditioned medium, sandwich ELISA)
[3] = molecular target: Beta Secretase enzyme (BACE) (Homo sapiens (Human), UniProt P56817); experiment: In vitro enzymatic BACE FRET assay; type: biochemical; details: read-out: BACE1 Enzyme assay IC50
Chain of Beta Secretase enzyme (BACE) (P56817 46-501): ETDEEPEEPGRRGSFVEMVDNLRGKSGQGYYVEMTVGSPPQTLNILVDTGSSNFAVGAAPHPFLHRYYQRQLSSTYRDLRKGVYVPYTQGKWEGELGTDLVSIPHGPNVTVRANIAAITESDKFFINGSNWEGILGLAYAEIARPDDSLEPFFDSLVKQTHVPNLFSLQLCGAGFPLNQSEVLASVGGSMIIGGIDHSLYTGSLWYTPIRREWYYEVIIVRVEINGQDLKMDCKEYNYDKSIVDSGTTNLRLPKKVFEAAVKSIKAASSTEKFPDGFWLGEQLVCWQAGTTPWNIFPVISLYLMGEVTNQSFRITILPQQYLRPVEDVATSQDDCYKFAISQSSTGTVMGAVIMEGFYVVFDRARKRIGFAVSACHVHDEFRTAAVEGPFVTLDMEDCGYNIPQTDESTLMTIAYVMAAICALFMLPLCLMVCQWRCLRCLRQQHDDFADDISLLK

Chain of Cathepsin D (Cat D) (P07339 65-412, species assumed): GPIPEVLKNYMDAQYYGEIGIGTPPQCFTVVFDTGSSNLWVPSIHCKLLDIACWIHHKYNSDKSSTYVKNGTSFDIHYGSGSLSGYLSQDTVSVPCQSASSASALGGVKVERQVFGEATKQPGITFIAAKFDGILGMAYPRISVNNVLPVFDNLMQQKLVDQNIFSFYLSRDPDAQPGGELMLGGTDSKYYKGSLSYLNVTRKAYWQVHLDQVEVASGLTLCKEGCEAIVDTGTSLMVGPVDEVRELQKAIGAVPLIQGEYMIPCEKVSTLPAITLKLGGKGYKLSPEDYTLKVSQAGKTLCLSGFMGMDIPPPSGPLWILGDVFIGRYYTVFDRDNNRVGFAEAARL
Chain of BACE (P56817 46-501, species assumed): as the sequence (P56817 46-501) above

Row | IC50 [1] [µM] | IC50 [2] [µM] | IC50 [3] [µM] | Compound
1 | 4250 | 0.296 | 0.104 | NC1=N[C@@](c2cc(NC(=O)c3ccc(OCC(F)(F)F)cn3)ccc2F)(C(F)F)[C@H]2C[C@H]2O1 [Example 236, N-(3-((1R,5S,6R)-3-amino-5-(difluoromethyl)-2-oxa-4-azabicyclo[4.1.0]hept-3-en-5-yl)-4-fluorophenyl)-5-(2,2,2-trifluoroethoxy) picolinamide]
2 | > 400 | 0.865 | 0.145 | NC1=N[C@@](c2cc(NC(=O)c3cnc(OCC4CCOC4)cn3)ccc2F)(C(F)F)[C@H]2C[C@H]2O1 (mixture of isomers) [Example 413]
3 | 1230 | 0.027 | 0.143 | COc1cnc(C(=O)Nc2ccc(F)c([C@@]3(CF)N=C(N)O[C@@H]4C[C@@H]43)c2)cn1 [Example 194, N-(3-((1R,5S,6R)-3-amino-5-(fluoromethyl)-2-oxa-4-azabicyclo[4.1.0]hept-3-en-5-yl)-4-fluorophenyl)-5-methoxypyrazine-2-carboxamide]
4 | 116 | 0.0014 | 0.0054 | C#CCOc1cnc(C(=O)Nc2cc(F)c(F)c([C@@]3(CF)N=C(N)O[C@@H]4C[C@@H]43)c2)cn1 [Example 33, N-(3-((1R,5S,6R)-3-amino-5-(fluoromethyl)-2-oxa-4-azabicyclo[4.1.0]hept-3-en-5-yl)-4,5-difluorophenyl)-5-(prop-2-yn-1-yloxy)pyrazine-2-carboxamide]
5 | 8910 | 0.861 | 0.0759 | NC1=N[C@@](c2cc(Nc3nccc4cc(C#CC5CC5)cnc34)ccc2F)(C(F)F)[C@H]2C[C@H]2O1 [Example 406, (1R,5S,6R)-5-(5-((3-(cyclopropylethynyl)-1,7-naphthyridin-8-yl)amino)-2-fluorophenyl)-5-(difluoromethyl)-2-oxa-4-azabicyclo[4.1.0]hept-3-en-3-amine]
6 | 1510 | > 15.6 | 26.7 | N#Cc1ccc(C(=O)Nc2ccc(F)c([C@@]3(C(F)F)N=C(N)O[C@@H]4C[C@@H]43)n2)nc1 [Example 331, N-(6-((1R,5S,6R)-3-amino-5-(difluoromethyl)-2-oxa-4-azabicyclo[4.1.0]hept-3-en-5-yl)-5-fluoropyridin-2-yl)-5-cyanopicolinamide]
7 | 440 | 0.0372 | 0.126 | Cc1c(C(=O)Nc2ccc(F)c([C@@]3(C(F)F)N=C(N)O[C@@H]4C[C@@H]43)c2)nc2ccc(Cl)cn12 [Example 69]
8 | 377 | 2.54 | 1.84 | CO[C@H](C)C(=O)Nc1ccc(F)c([C@@]2(C(F)F)N=C(N)O[C@@H]3C[C@@H]32)c1 (mixture of isomers) [Example 257, (R,S)-N-(3-((1R,5S,6R)-3-amino-5-(difluoromethyl)-2-oxa-4-azabicyclo[4.1.0]hept-3-en-5-yl)-4-fluorophenyl)-2-methoxypropanamide]
9 | 647 | > 15.6 | > 40 | COc1cnc(C(=O)Nc2cc(F)c(Cl)c([C@]3(CF)N=C(N)O[C@H]4C[C@H]43)c2)cn1 [Example 155]
10 | 1070 | 0.536 | 0.415 | CC(F)(F)Oc1ccc(C(=O)Nc2ccc(F)c([C@@]3(C(F)F)N=C(N)O[C@@H]4C[C@@H]43)c2)nc1 [Example 191, N-(3-((1R,5S,6R)-3-amino-5-(difluoromethyl)-2-oxa-4-azabicyclo[4.1.0]hept-3-en-5-yl)-4-fluorophenyl)-5-(1,1-difluoroethoxy) picolinamide]
11 | 1010 | 0.0789 | 0.0366 | NC1=N[C@@](c2cc(NC(=O)c3ccc(OCc4ncco4)cn3)ccc2F)(C(F)F)[C@H]2C[C@H]2O1 [Example 173, N-(3-((1R,5S,6R)-3-amino-5-(difluoromethyl)-2-oxa-4-azabicyclo[4.1.0]hept-3-en-5-yl)-4-fluorophenyl)-5-(oxazol-2-ylmethoxy) picolinamide]

The next lines start with the molecule.

Row | Compound | IC50 [1] [µM] | IC50 [2] [µM] | IC50 [3] [µM]
12 | Cc1cc(C#N)cnc1C(=O)Nc1cc(F)c(C)c([C@]2(C(F)F)N=C(N)O[C@H]3C[C@H]32)c1 [Example 311, N-(3-((1S,5R,6S)-3-amino-5-(difluoromethyl)-2-oxa-4-azabicyclo[4.1.0]hept-3-en-5-yl)-5-fluoro-4-methylphenyl)-5-cyano-3-methylpicolinamide] | 294 | 0.0174 | 0.0466
13 | Cc1cc(C#N)cnc1C(=O)Nc1cc(F)c(Cl)c([C@@]2(CF)N=C(N)O[C@@H]3C[C@@H]32)c1 [Example 138, N-(3-((1R,5S,6R)-3-amino-5-(fluoromethyl)-2-oxa-4-azabicyclo[4.1.0]hept-3-en-5-yl)-4-chloro-5-fluorophenyl)-5-cyano-3-methylpicolinamide] | 662 | 0.0151 | 0.0362
14 | COCc1cc(C#N)cnc1C(=O)Nc1ccc(Cl)c([C@@]2(CF)N=C(N)O[C@@H]3C[C@@H]32)c1 [Example 386, N-(3-((1R,5S,6R)-3-amino-5-(fluoromethyl)-2-oxa-4-azabicyclo[4.1.0]hept-3-en-5-yl)-4-chlorophenyl)-5-cyano-3-(methoxymethyl)picolinamide] | 1820 | 0.0085 | 0.0251
15 | COc1cnc2c(Nc3ccc(F)c([C@@]4(C(F)F)N=C(N)O[C@@H]5C[C@@H]54)c3)nccc2c1 [Example 348, (1R,5S,6R)-5-(difluoromethyl)-5-(2-fluoro-5-((3-methoxy-1,7-naphthyridin-8-yl)amino)phenyl)-2-oxa-4-azabicyclo[4.1.0]hept-3-en-3-amine] | 738 | 0.106 | 0.456
16 | NC1=N[C@](CF)(c2cc(NC(=O)c3ncc(Cl)cc3F)ccc2Cl)[C@H]2C[C@H]2O1 [Example 442, N-(3-((1R,5S,6R)-3-amino-5-(fluoromethyl)-2-oxa-4-azabicyclo[4.1.0]hept-3-en-5-yl)-4-chlorophenyl)-5-chloro-3-fluoropicolinamide] | 1140 | 0.0134 | 0.0544
17 | COc1cnc(C(=O)Nc2ccc(Cl)c([C@@]3(CF)N=C(N)O[C@@H]4C[C@@H]43)c2)c(C)n1 [Example 301, N-(3-((1R,5S,6R)-3-amino-5-(fluoromethyl)-2-oxa-4-azabicyclo[4.1.0]hept-3-en-5-yl)-4-chlorophenyl)-5-methoxy-3-methylpyrazine-2-carboxamide] | 715 | 0.031 | 0.352
18 | N#Cc1cnc2c(Nc3cc(F)c(F)c([C@]4(C(F)F)N=C(N)O[C@H]5C[C@H]54)c3)ncc(F)c2c1 [Example 366, 8-((3-((1S,5R,6S)-3-amino-5-(difluoromethyl)-2-oxa-4-azabicyclo[4.1.0]hept-3-en-5-yl)-4,5-difluorophenyl)amino)-5-fluoro-1,7-naphthyridine-3-carbonitrile] | 128 | > 16 | > 13.7
19 | CS(=O)(=O)c1c(F)cc(NC(=O)c2ccc(Cl)cn2)cc1[C@@]1(CF)N=C(N)O[C@@H]2C[C@@H]21 (racemic) [Example 424, N-(3-(((1RS),(5S,R),(6R,S))-3-amino-5-(fluoromethyl)-2-oxa-4-azabicyclo[4.1.0]hept-3-en-5-yl)-5-fluoro-4-(methylsulfonyl)phenyl)-5-chloropicolinamide] | 832 | 0.254 | 1.03
20 | CC#CCOc1ccc(C(=O)Nc2ccc(F)c([C@@]3(CF)N=C(N)O[C@@H]4C[C@@H]43)c2)nc1 [Example 203, N-(3-((1R,5S,6R)-3-amino-5-(fluoromethyl)-2-oxa-4-azabicyclo[4.1.0]hept-3-en-5-yl)-4-fluorophenyl)-5-(but-2-yn-1-yloxy)picolinamide] | 303 | 0.0039 | 0.0089
21 | Cc1cc(C(F)F)cnc1C(=O)Nc1cnc(F)c([C@@]2(CF)N=C(N)O[C@@H]3C[C@@H]32)c1 [Example 234, N-(5-((1R,5S,6R)-3-amino-5-(fluoromethyl)-2-oxa-4-azabicyclo[4.1.0]hept-3-en-5-yl)-6-fluoropyridin-3-yl)-5-(difluoromethyl)-3-methylpicolinamide] | > 14.8 | 0.0596 | 0.283
22 | N#Cc1cnc2c(Nc3ccc(F)c([C@@]4(C(F)F)N=C(N)O[C@@H]5C[C@@H]54)c3)nccc2c1 [Example 446, 8-((3-((1R,5S,6R)-3-amino-5-(difluoromethyl)-2-oxa-4-azabicyclo[4.1.0]hept-3-en-5-yl)-4-fluorophenyl)amino)-1,7-naphthyridine-3-carbonitrile] | 658 | 0.107 | 0.0558
23 | COCc1cc(Cl)cnc1C(=O)Nc1ccc(Cl)c([C@@]2(CF)N=C(N)O[C@@H]3C[C@@H]32)c1 [Example 128, N-(3-((1R,5S,6R)-3-amino-5-(fluoromethyl)-2-oxa-4-azabicyclo[4.1.0]hept-3-en-5-yl)-4-chlorophenyl)-5-chloro-3-(methoxymethyl) picolinamide] | 1000 | 0.0161 | 0.0508
24 | COc1cnc2c(Nc3ccc(Cl)c([C@@]4(CF)N=C(N)O[C@@H]5C[C@@H]54)c3)nccc2c1 [Example 360, (1R,5S,6R)-5-(2-chloro-5-((3-methoxy-1,7-naphthyridin-8-yl)amino)phenyl)-5-(fluoromethyl)-2-oxa-4-azabicyclo[4.1.0]hept-3-en-3-amine] | 843 | 0.139 | 1.26
25 | CC#CCOc1cnc(C(=O)Nc2cc(F)c(F)c([C@@]3(CF)N=C(N)O[C@@H]4C[C@@H]43)c2)cn1 [Example 35, N-(3-((1R,5S,6R)-3-amino-5-(fluoromethyl)-2-oxa-4-azabicyclo[4.1.0]hept-3-en-5-yl)-4,5-difluorophenyl)-5-(but-2-yn-1-yloxy)pyrazine-2-carboxamide] | 256 | 0.0006 | 0.0016
